Assays:
panel of 442 kinases [1] = target: T1, panel of 442 kinases (Homo sapiens, UniProt O75914); type: binding; settings: Compound Concentration 10 µM
T1 construct: purchased KINOMEscan
Description: (§1) We assessed the selectivity of members of this scaffold using the KINOMEscan methodology across a near comprehensive panel of 442 kinases [[18,27]].

panel of 442 kinases [2] = target: T2, panel of 442 kinases (Homo sapiens, UniProt P36896); type: binding; settings: Compound Concentration 10 µM
T2 construct: purchased KINOMEscan
T2 sequence (P36896 24-505): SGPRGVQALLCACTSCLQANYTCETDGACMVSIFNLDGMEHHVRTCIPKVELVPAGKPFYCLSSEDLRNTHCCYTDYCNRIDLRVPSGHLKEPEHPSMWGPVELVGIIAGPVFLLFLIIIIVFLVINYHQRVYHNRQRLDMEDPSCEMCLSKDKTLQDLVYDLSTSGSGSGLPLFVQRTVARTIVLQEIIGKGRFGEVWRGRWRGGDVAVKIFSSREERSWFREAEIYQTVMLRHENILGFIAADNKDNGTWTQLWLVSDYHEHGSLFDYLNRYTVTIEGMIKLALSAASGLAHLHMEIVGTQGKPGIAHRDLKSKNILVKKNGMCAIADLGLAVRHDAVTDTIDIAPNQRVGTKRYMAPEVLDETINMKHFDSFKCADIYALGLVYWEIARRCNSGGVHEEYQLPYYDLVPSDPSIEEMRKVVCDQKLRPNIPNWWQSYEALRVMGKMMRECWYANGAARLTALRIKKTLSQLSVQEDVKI
Description: as §1

T1 sequence (O75914 whole entry): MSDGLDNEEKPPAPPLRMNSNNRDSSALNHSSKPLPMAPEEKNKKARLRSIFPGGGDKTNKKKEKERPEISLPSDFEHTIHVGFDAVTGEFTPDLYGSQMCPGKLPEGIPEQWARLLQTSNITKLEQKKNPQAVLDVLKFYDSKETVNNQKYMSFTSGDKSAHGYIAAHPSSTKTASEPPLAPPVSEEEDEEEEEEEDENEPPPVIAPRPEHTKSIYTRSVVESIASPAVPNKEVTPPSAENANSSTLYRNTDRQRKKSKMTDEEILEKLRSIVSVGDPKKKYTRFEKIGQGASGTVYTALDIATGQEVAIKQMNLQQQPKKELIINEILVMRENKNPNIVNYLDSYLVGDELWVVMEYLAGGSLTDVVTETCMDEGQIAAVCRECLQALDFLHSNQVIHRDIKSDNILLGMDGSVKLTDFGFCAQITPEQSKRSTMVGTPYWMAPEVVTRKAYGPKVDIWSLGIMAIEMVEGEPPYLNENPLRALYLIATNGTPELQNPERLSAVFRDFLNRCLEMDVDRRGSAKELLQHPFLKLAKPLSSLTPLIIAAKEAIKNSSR

SMILES | KINOMEscan: PAK3 (panel of 442 kinases [1]) | KINOMEscan: ACVR1B (panel of 442 kinases [2])
CCOc1cc(C(=O)N2CCC(N3CCN(C)CC3)CC2)ccc1Nc1ncc2c(n1)N(C1CCCC1)c1ccccc1C(=O)N2C [Compound 26] | 95 | 100
COc1cc(C(=O)N2CCC(N3CCN(C)CC3)CC2)ccc1Nc1ncc2c(n1)N(C1CCCC1)c1ccccc1C(=O)N2C [Compound 25, 11-cyclopentyl-2-((2-methoxy-4-(4-(4-methylpiperazin-1-yl)piperidine-1-carbonyl)phenyl)amino)-5-methyl-5H-benzo[e]pyrimido[5,4-b][1,4]diazepin-6(11H)-one] | 69 | 97
COc1cc(C(=O)N2CCC(N3CCN(C)CC3)CC2)ccc1Nc1ncc2c(n1)N1CCc3cccc(c31)C(=O)N2C [Compound 24] | 80 | –
COc1cc(C(=O)N2CCC(N3CCN(C)CC3)CC2)ccc1Nc1ncc2c(n1)N(C)c1ccccc1C(=O)N2C [15 (LRRK2-IN-1)] | 83 | 100
